According to publication PMC5399447, “Neuroprotective pentapeptide CN-105 is associated with reduced sterile inflammation and improved functional outcomes in a traumatic brain injury murine model” (Scientific Reports, 2017):

Legend:
[1] = tested on: murine closed head injury model (TBI); test: Rotarod vestibulomotor function after closed head injury; assay type: in vivo, mouse; conditions: for Rotarod functional performance compared to vehicle: n = 11-12/group
Excerpt: (§1) The murine closed head injury model used in this study was previously described. The closed head impact results in injury to selectively vulnerable neurons in cortex and hippocampus, and is associated with vestibulomotor deficits and long term neurocognitive deficits. Although animals do lose body weight, they rapidly regain spontaneous ventilation, righting reflex, and the ability to ambulate. Briefly, 12–14 week-old C57Bl/6 J male mice(Jackson Laboratories, Bar Harbor, ME) were used. The trachea was intubated after anesthesia induction with 4.6% isoflurane and the lungs were mechanically ventilated with 1.6% isoflurane in 30% O2/70% N2. Core body temperature was maintained at 37 °C through a rectal probe. To avoid basilar skull fracture, ear bars are not used. The animal was secured in a stereotactic device in a prone position on a molded acrylic cast with surgical tape across the shoulders. The intubation tube was also secured to the acrylic cast with tape. The acrylic cast is designed to allow the mouse to have 3 mm of space below the head to allow for acceleration/decelaration of the head in this position. The head was shaved and the scalp was incised to expose the skull and identify anatomical landmarks. A concave 3-mm metallic disc was adhered to the skull immediately caudal to bregma. A 2.0-mm diameter pneumatic impactor(Air-Power Inc., High Point, NC) was used to deliver a single midline impact to the center of the disc surface. The impactor was discharged at 6.8 ± 0.2 m/second with a head displacement of 3 mm. After impact, the animals were allowed to recover spontaneous ventilation and then the tracheas were extubated. Mice were allowed free access to food and water. Sham mice were treated identically except for the absence of impact. All mice were housed in the same facility.
CN-105(Ac-VSRRR-amide) was synthesized by Polypeptide Inc.(San Diego, CA) to a purity of >99%, and was delivered in sterile normal saline. […] Vehicle treated animals received intravenous injection of 100 μL of normal saline at the same time points. Animals were assigned to treatment group by a coded study identification number after injury using a paper randomization protocol. A block randomization scheme was used, so that an equal number of animals were randomized to each of the treatment groups during concurrent experiments.
An automated Rotarod(Ugo Basile, Comerio, Italy) was used to assess vestibulomotor function. On the day prior to injury, mice(n = 11–12 mice per group) underwent one training trial at an accelerating rotational speed(4–40 rpm) for at least 200 seconds and then three additional test trials with the same accelerating rotational speed. The average time to fall from the rotating cylinder in the test trials was recorded as baseline latency. Mice were tested on consecutive days post-injury and received three consecutive daily trials with accelerating rotational speed(inter-trial interval = 15 minutes)(n = 10–12 mice). The average latency to fall from the rod was recorded. Mice unable to grasp the rotating rod were given a latency value of 0 seconds.

[2] = tested on: murine closed head injury model (TBI); test: Morris Water Maze after closed head injury; assay type: in vivo, mouse
Excerpt: as §1
(§2) CN-105(Ac-VSRRR-amide) was synthesized by Polypeptide Inc.(San Diego, CA) to a purity of >99%, and was delivered in sterile normal saline. Animals were placed in a restrainer(Harvard Apparatus, Holliston, MA), and a single intravenous dose of drug(0.05 mg/kg) was administered by tail vein in a volume of 100 μL. Vehicle treated animals received intravenous injection of 100 μL of normal saline at the same time points. Animals were assigned to treatment group by a coded study identification number after injury using a paper randomization protocol. A block randomization scheme was used, so that an equal number of animals were randomized to each of the treatment groups during concurrent experiments.
As described previously the Morris Water Maze assesses spatial learning and memory by testing the ability of mice to locate a submerged platform. The mice were placed in a pool(105 cm diameter) filled with room temperature(25 °C) water made opaque with fat free powdered milk and allowed up to 90 seconds to locate the submerged platform. The mice performed four trials/day for 4 consecutive days(inter-trial interval = 30 min). The mice were introduced in varying quadrants of the pool for each trial but the location of the platform never varied. The latency to locate the platform was recorded, and the 4 trials per day were averaged. Mice were tested on days 28–31 post-injury(n = 11–12 mice per group). A probe trial was administered on day 4 of the experiment 3 hours after the last test trial was completed. For the probe trial, the platform was removed and the mice were allowed to swim freely for 60 seconds. The percent of the time the mice spent in the platform quadrant was quantified.

TBI mice = test: Tolerability after injury; assay type: in vivo, mouse; conditions: treatment after injury
Procedure: as §2

[3] = tested on: murine model of intracranial hemorrhage; conditions: cited from earlier work
Excerpt: The possibility that the apoE mimetic peptide modifies sterile inflammation in the central nervous system is particularly relevant after traumatic brain injury, where glial activation and neuroinflammatory responses exacerbate secondary tissue injury. […] For example, there are a number of limitations inherent to all rodent models of traumatic brain injury. This includes the lissencephalic nature of rodent brains, which precludes testing of higher and more subtle cortical functions that are directly applicable to the clinical setting. Moreoever, rodent brains have reduced ratio of white: grey matter as compared to primates, and thus are not ideal to model the diffuse axonal injury that may occur in the clinical s ...

[4] = 0.05 mg/kg iv 4 hours post-injury

Ac-VSRRR-amide [CN-105]
Rotarod functional performance compared to vehicle ([1]; 0.0125 mg/kg iv 2 h after TBI, p = 0.267): did not show robust improvement
Rotarod functional performance compared to vehicle ([1]; 0.05 mg/kg iv 2 h after TBI, p = 0.011): improved functional performance
Rotarod latency compared to vehicle [1, 4]: significant and durable improvement in Rotarod latency
Rotarod functional performance compared to vehicle ([1]; 0.2 mg/kg iv 2 h after TBI, p = 0.023): improved functional performance
Rotarod functional performance compared to vehicle ([1]; 0.8 mg/kg iv 2 h after TBI, p = 0.009): improved functional performance
lowest effective dose resulting in improved functional performance ([1]; iv 2 h after TBI, Rotarod): 0.05 mg/kg
effect of pretreatment on vestibulomotor and cognitive function ([1]; pretreatment 30 minutes prior to TBI, data not shown): no additional effects on vestibulomotor and cognitive function
Morris Water Maze latency to platform compared to vehicle ([2]; 0.05 mg/kg iv 2 h after TBI, days 28-31, p = 0.036): significantly reduced time to escape to the platform
Morris Water Maze probe trial compared to vehicle ([2]; 0.05 mg/kg iv 2 h after TBI, p = 0.0079): performed better on the probe trial
Morris Water Maze swim speed compared to vehicle ([2]; 0.05 mg/kg iv 2 h after TBI, p = 0.4968): no difference in swim speed
Morris Water Maze neurocognitive performance compared to vehicle [2, 4]: reduced deficit on Morris Water Maze testing
Morris Water Maze probe trial compared to vehicle ([2]; 0.05 mg/kg iv 4 hours post-injury, p = 0.0211): performed better on the probe trial
Morris Water Maze swim speed compared to vehicle ([2]; 0.05 mg/kg iv 4 hours post-injury, p = 0.0567): no significant difference in swim speed
tolerability (TBI mice): well tolerated
functional outcome ([3]; model of intracranial hemorrhage): improves functional outcome
cerebral edema ([3]; murine model of intracranial hemorrhage): reduces cerebral edema
